Data reported in patent US6949557B2, “Hydroanthracene based compounds as anticancer agents” (Dabur Research Foundation, priority 2003, dated 2005).
Converted amounts (≈) assume the structure as drawn.

Tests used:
[1] = tested on: PA1; experiment: three day MTT cytotoxicity assay, PA1; assay type: cell-based, human; settings: 72 hours incubation, PA1 ovarian cells
Protocol: (§1) A number of the anthracene based compounds were tested for cytotoxicity against 12 human tumor cell lines. Briefly, a three day MTT cytotoxicity assay was performed, which is based on the principle of uptake of MTT (3-(4,5-dimethylthiazol-2-yl)-2,5-diphenyl tetrazolium bromide), a tetrazolium salt, by the metabolically active cells where it is metabolized by active mitochondria into a blue colored formazan product that is read spectrophotometrically. MTT was dissolved in phosphate buffered saline with a pH of 7.4 to obtain an MTT concentration of 5 mg/ml; the resulting mixture was filtered through a 0.22 micron filter to sterilize and remove a small amount of insoluble residue. For each type of tumor cell, 10,000 to 15,000 cells were seeded in a 96-well culture plate and incubated with the individual anthracene based compounds in a CO2 incubator for a total of 72 hours. Control cells not treated with the anthracene based compounds were similarly incubated. The assay was terminated by adding 100 ug (20 ul) of MTT to each well, then incubating for additional one hour, and finally adding 50 ul of 10% SDS-0.01N HCl to each well to lyse the cells and dissolve formazan. After incubating for one hour, the plate was read spectrophotometrically at 540 nm and the percentage of cytotoxicity calculated using the following formula:
(§2) Cytotoxicity percentage=100×[1−(X/R1)],
(§3) where X=(absorbance of treated sample at 540 nm)−(absorbance of blank at 540 nm)
(§4) R1=absorbance of control sample at 540 nm.
(§5) The IC50 Values of the cytotoxicity defined as the concentration at which 50% of the cells are killed in vitro was calculated for each cell line treated with each of the anthracene based compounds.

[2] = tested on: PTC; experiment: three day MTT cytotoxicity assay, PTC; assay type: cell-based, human; settings: 72 hours incubation, PTC colon cells
Protocol: as §1, §2, §3, §4, §5

[3] = tested on: HT29; experiment: three day MTT cytotoxicity assay, HT29; assay type: cell-based, human; settings: 72 hours incubation, HT29 colon cells
Protocol: as §1, §2, §3, §4, §5

[4] = tested on: ECV304; experiment: three day MTT cytotoxicity assay, ECV304; assay type: cell-based, human; settings: 72 hours incubation, ECV304 endothelial cells
Protocol: as §1, §2, §3, §4, §5

[5] = tested on: L132; experiment: three day MTT cytotoxicity assay, L132; assay type: cell-based, human; settings: 72 hours incubation, L132 lung cells
Protocol: as §1, §2, §3, §4, §5

[6] = tested on: MiaPaca2; experiment: three day MTT cytotoxicity assay, MiaPaca2; assay type: cell-based, human; settings: 72 hours incubation, MiaPaca2 pancreatic cells
Protocol: as §1, §2, §3, §4, §5

[7] = tested on: MCF7; experiment: three day MTT cytotoxicity assay, MCF7; assay type: cell-based, human; settings: 72 hours incubation, MCF7 breast cells
Protocol: as §1, §2, §3, §4, §5

[8] = tested on: DU145; experiment: three day MTT cytotoxicity assay, DU145; assay type: cell-based, human; settings: 72 hours incubation, DU145 prostate cells
Protocol: as §1, §2, §3, §4, §5

[9] = tested on: MOLT4; experiment: three day MTT cytotoxicity assay, MOLT4; assay type: cell-based, human; settings: 72 hours incubation, MOLT4 leukemia cells
Protocol: as §1, §2, §3, §4, §5

[10] = tested on: Hep2; experiment: three day MTT cytotoxicity assay, Hep2; assay type: cell-based, human; settings: 72 hours incubation, Hep2 larynx cells
Protocol: as §1, §2, §3, §4, §5

[11] = tested on: U87MG; experiment: three day MTT cytotoxicity assay, U87MG; assay type: cell-based, human; settings: 72 hours incubation, U87MG glioblastoma cells
Protocol: as §1, §2, §3, §4, §5

[12] = tested on: KB; experiment: three day MTT cytotoxicity assay, KB; assay type: cell-based, human; settings: 72 hours incubation, KB oral cells
Protocol: as §1, §2, §3, §4, §5

Row | Structure (SMILES) | ED50 PA1 Ovarian [1] [µg/mL] | ED50 PTC Colon [2] [µg/mL] | ED50 HT29 Colon [3] [µg/mL] | ED50 ECV304 Endothelial [4] [µg/mL] | ED50 L132 Lung [5] [µg/mL] | ED50 MiaPaca2 Pancreatic [6] [µg/mL] | ED50 MCF7 Breast [7] [µg/mL] | ED50 DU145 Prostate [8] [µg/mL] | ED50 MOLT4 Leukemia [9] [µg/mL] | ED50 Hep2 Larynx [10] [µg/mL] | ED50 U87MG Glioblastoma [11] [µg/mL] | ED50 KB Oral [12] [µg/mL] | melting point [°C]
1 | COc1ccc(OC)c2c1CC1C(OC(=O)C(O)C(N)c3ccccc3)C(C)=CCC1C2(C)C (stereo not shown) [Compound 7, 3-Amino-2-hydroxy-3-phenyl-propionic acid 5,8-dimethoxy-2,10,10-trimethyl-1,4,4a,9,9a,10-hexahydro-anthracen-1-yl ester] | 5.0 (≈ 10.7 µM) | 5.0 (≈ 10.7 µM) | 8.0 (≈ 17.2 µM) | 6.0 (≈ 12.9 µM) | 24 (≈ 51.5 µM) | 35 (≈ 75.2 µM) | 35 (≈ 75.2 µM) | 33 (≈ 70.9 µM) | 5.0 (≈ 10.7 µM) | 5.0 (≈ 10.7 µM) | 24 (≈ 51.5 µM) | 29 (≈ 62.3 µM) | 
2 | COc1ccc(OC)c2c1C[C@]1(C)C(OC(=O)[C@H](O)[C@@H](N)c3ccccc3)C(C)=CC[C@H]1C2(C)C (stereo partly shown) [Compound 11, 3-Amino-2-hydroxy-3-phenyl-propionic acid 5,8-dimethoxy-2,9a,10,10-tetramethyl-1,4,4a,9,9a,10-hexahydro-anthrcen-1-yl ester] | 4 (≈ 8.34 µM) |  | 27 (≈ 56.3 µM) | 2 (≈ 4.17 µM) | 21 (≈ 43.8 µM) | 7 (≈ 14.6 µM) | 8 (≈ 16.7 µM) | 10 (≈ 20.8 µM) | <1 | 16 (≈ 33.4 µM) | 10 (≈ 20.8 µM) | 18 (≈ 37.5 µM) | 
3 | CC1=CCC2C(C)(C)C3=C(CC2(C)C1=O)C(=O)C=CC3=O (stereo not shown) [Compound 19, 6,9,9,10a-Tetramethyl-8a,9,10,10a-tetrahydro-8H-anthracene-1,4,5-trione] | 15 (≈ 52.8 µM) | 40 (≈ 141 µM) | 33 (≈ 116 µM) | 6 (≈ 21.1 µM) | 6 (≈ 21.1 µM) | 80 (≈ 281 µM) | 18 (≈ 63.3 µM) | 15 (≈ 52.8 µM) | 4 (≈ 14.1 µM) | 26 (≈ 91.4 µM) | 16 (≈ 56.3 µM) | 62 (≈ 218 µM) | 
4 | CC1=CCC2C(CC3=C(C(=O)C=CC3=O)C2(C)C)C1=O (stereo not shown) [Compound 20, 6,9,9-Trimethyl-8a,9, 10,10a-tetrahydro-8H-anthracene-1,4,5-trione] |  |  |  |  |  |  |  |  |  |  |  |  | 125 to 140
5 | CC1=CCC2C(C)(C)C3=C(CC2(C)C1OC(=O)C1OC(C)(C)N(C(=O)OC(C)(C)C)C1c1ccccc1)C(=O)C=CC3=O (stereo not shown) [Compound 23, 2,2-Dimethyl-4-phenyl-oxazolidine-3,5-dicarboxylic acid 3-tert-butyl ester 5-(2,9a,10,10-tetramethyl-5,8-dioxo-1,4,4a,5,8,9,9a,10-octahydro-anthracen-1-yl) ester] |  |  |  |  |  |  |  |  |  |  |  |  | 90 to 92
6 | CC1=CCC2C(C)(C)C3=C(CC2(C)C1OC(=O)C(O)C(N)c1ccccc1)C(=O)C=CC3=O (stereo not shown) [Compound 24, 3-Amino-2-hydroxy-3-phenyl-propionic acid 2,9a,10,10-tetramethyl-5,8-dioxo-1,4,4a,5,8,9,9a,10-octahydro-anthracen-1-yl ester] | 8 (≈ 17.8 µM) |  | 6 (≈ 13.3 µM) | 3 (≈ 6.67 µM) | >100 | >100 | >100 | 5 (≈ 11.1 µM) | 7 (≈ 15.6 µM) | 14 (≈ 31.1 µM) | 5 (≈ 11.1 µM) | 6.6 (≈ 14.7 µM) | 
7 | CC1=CCC2C(CC3=C(C(=O)C=CC3=O)C2(C)C)C1OC(=O)C1OC(C)(C)N(C(=O)OC(C)(C)C)C1c1ccccc1 (stereo not shown) [Compound 25, 2,2-Dimethyl-4-phenyl-oxazolidine-3,5-dicarboxylic acid 3-tert-butyl ester 5-(2,10,10-trimethyl-5,8-dioxo-1,4,4a,5,8,9,9a,10-octahydro-anthracen-1-yl) ester] | 8 (≈ 13.9 µM) | 8 (≈ 13.9 µM) | 35 (≈ 60.8 µM) | 5 (≈ 8.69 µM) | 4 (≈ 6.95 µM) | 35 (≈ 60.8 µM) | 16 (≈ 27.8 µM) | 32 (≈ 55.6 µM) | <1 | 11 (≈ 19.1 µM) | 24 (≈ 41.7 µM) | 35 (≈ 60.8 µM) | 
8 | CC1=CCC2C(CC3=C(C(=O)C=CC3=O)C2(C)C)C1OC(=O)C(O)C(N)c1ccccc1 (stereo not shown) [Compound 26, 3-Amino-2-hydroxy-3-phenyl-propionic acid 2,10,10-trimethyl-5,8-dioxo-1,4,4a,5,8,9,9a,10-octahydro-anthracen-1-yl ester] | 19 (≈ 43.6 µM) | 5.0 (≈ 11.5 µM) | 6.5 (≈ 14.9 µM) | 29 (≈ 66.6 µM) | 10 (≈ 23 µM) | 35 (≈ 80.4 µM) | 32 (≈ 73.5 µM) | 26 (≈ 59.7 µM) | 5.0 (≈ 11.5 µM) | 20 (≈ 45.9 µM) | 24 (≈ 55.1 µM) | 31 (≈ 71.2 µM) | 
9 | CC1=CCC2C(C)(C)C3=C(CC2(C)C1OC(=O)c1cc(Cl)nc(Cl)n1)C(=O)C=CC3=O (stereo not shown) [Compound 27, 2,6-Dichloro-pyrimidine-4-carboxylicacid-2,9a,10,10-tetramethyl-5,8-dioxo-1,4,4a,5,8,9,9a,10-octahydro-anthracen-1-yl ester] |  |  |  |  |  |  |  |  |  |  |  |  | 137 to 140
10 | COc1ccc(OC)c2c1Cc1c(ccc(C)c1OC(=O)[C@H](O)[C@@H](N)c1ccccc1)C2(C)C [Compound 29, 3-Amino-2-hydroxy-3-phenyl-propionic acid 5,8-dimethoxy-2,10,10,-trimethyl-9,10-dihydro-anthracen-1-yl ester] | 5.0 (≈ 10.8 µM) | 5.0 (≈ 10.8 µM) | 6.5 (≈ 14.1 µM) | 9.0 (≈ 19.5 µM) | 5.0 (≈ 10.8 µM) | 35 (≈ 75.8 µM) | 29 (≈ 62.8 µM) | 34 (≈ 73.7 µM) | 5.0 (≈ 10.8 µM) | 5.0 (≈ 10.8 µM) | 8.0 (≈ 17.3 µM) | 30 (≈ 65 µM) | 
